The source of these data is patent publication US8461117B2, “Chemical linkers and cleavable substrates and conjugates thereof” (Medarex, Inc., priority 2006, dated 2013).

The conditions of data set [1]: cited from earlier work.
Data set [2] deals with 786-O. As to the kind of experiment: Second in vivo study: 786-O xenografts, cytotoxins (Compounds A, F, H-J) conjugated to anti-CD70 HuMAb 2H5. Also noted: species or system CB17.SCID mice. As to conditions: 786-O xenograft, tumors averaging 200 mm^3, single IP dose Day 0, 0.005-0.03 Toxin μmole, conjugated to CD70.1. As to the method: (§1) 786-O (ATCC Accession No. CRL-1932) cells were expanded in vitro using standard laboratory procedures. Male CB17.SCID mice (Taconic, Hudson, N.Y.) between 6-8 weeks of age were implanted subcutaneously in the right flank with 2.5 million 786-O in 0.2 ml of PBS/Matrigel (1:1) per mouse. Mice were weighed and measured for tumors three dimensionally using an electronic caliper twice weekly after implantation. Tumor volumes were calculated as height×width×length. Mice with tumors averaging 200 mm^3 were randomized into treatment groups. The mice were dosed intraperitoneally with PBS vehicle, cytotoxin-conjugated isotype control antibody or cytotoxin-conjugated anti-CD70 HuMAb 2H5 on Day 0. Each group contained 8 mice.

The subject of data set [3] is 786-O. The experiment in a line: First in vivo study: 786-O xenografts, cytotoxins (Compounds A-G) conjugated to anti-CD70 HuMAb 2H5. Also noted: species or system CB17.SCID mice. The conditions noted are these: 786-O xenograft, tumors averaging 200 mm^3, single IP dose Day 0, 0.1 (some also 0.01) Toxin μmole, conjugated to CD70.1. As to the method: as §1, with “as height x width x length.” for “as height×width×length.”, “contained 7” for “contained 8”

Turning to `COc1c(O)c2c(c3cc(C(=O)N4CCc5c4c(O)c(OC)c4[nH]c(C(=O)N6CC7CC78C6=CC(=O)c6[nH]cc(C)c68)cc54)[nH]c13)CCN2C(N)=O` (stereo not drawn) [CC-1065], the “Antitumor and antimicrobial activity” value in data set [1] (both in vitro and in experimental animals (Li et al. 1982)) is “potent antitumor and antimicrobial activity”. In data set [1] (experimental animals), the “Toxicity in experimental animals” value is “delayed death”.

For `CC(C)[C@H](NC(=O)CCOCCOCCOCCOCCNC(=O)CCN1C(=O)C=CC1=O)C(=O)N[C@@H](CCCNC(N)=O)C(=O)N1CCc2c1ccc1[nH]c(C(=O)N3C[C@@H](CBr)c4c3cc(OC(=O)N3CCN(C)CC3)c3ccccc43)cc21` [Compound C], the “Efficacy, descending order (mean/median tumor volume versus days past dosing, FIGS. 4-5)” value with 786-O [2] is reported as “Compound J/Compound C>Compound H>Compound G/Compound I>Naked CD70.1”. Consider `CC(C)[C@H](NC(=O)CCOCCOCCOCCOCCNC(=O)CCN1C(=O)C=CC1=O)C(=O)N[C@@H](CCCNC(N)=O)C(=O)N1CCc2c1ccc1[nH]c(C(=O)N3C[C@@H](CBr)c4c3cc(OC(=O)N3CCN(C)CC3)c3ccccc43)cc21` [Compound D], for which the “Efficacy, descending order (mean/median tumor volume versus days past dosing, FIGS. 1-2)” value in the data set with 786-O [3] is listed as “Compound D>Compound A>Compound F>Compound B>Compound C>Compound E>Naked CD70.1/Compound G”. `CC(C)[C@H](NCCNC(=O)CCCN1C(=O)C=CC1=O)C(=O)N[C@@H](CCCNC(N)=O)C(=O)Nc1ccc(C(=O)Nc2ccc3[nH]c(C(=O)N4C[C@@H](CBr)c5c4cc(OC(=O)N4CCN(C)CC4)c4ccccc54)cc3c2)cc1` [Compound H]: the “Efficacy, descending order (mean/median tumor volume versus days past dosing, FIGS. 4-5)” value in the data set with 786-O [2] is listed as “Compound J/Compound C>Compound H>Compound G/Compound I>Naked CD70.1”.

Consider `CC(C)[C@H](NCCNC(=O)CCCN1C(=O)C=CC1=O)C(=O)N[C@@H](CCCNC(N)=O)C(=O)Nc1ccc(C(=O)Nc2ccc3[nH]c(C(=O)N4C[C@@H](CCl)c5c4cc(OC(=O)N4CCN(C)CC4)c4ccccc54)cc3c2)cc1` [Compound J], for which the “Efficacy, descending order (mean/median tumor volume versus days past dosing, FIGS. 4-5)” value in the data set on 786-O [2] is on record as “Compound J/Compound C>Compound H>Compound G/Compound I>Naked CD70.1”.
